The numbers were not newly measured in patent US20130296440A1 (CHROMADEX INC., priority 2012, published 2013), which cites them from elsewhere.

Where two headings read alike, the source gives them in different places.

For data set [1] the following is noted: for half life t1/2: in blood; for bioavailability: in vivo.
In a further data set the test system is H4IIEC3 rat liver cells. The conditions noted are these: 100 μM.
The target of a further data set is T1, 5-LOX (Homo sapiens, UniProt P09917).
T1 construct: endogenous in cells
T1 sequence (P09917 1-674): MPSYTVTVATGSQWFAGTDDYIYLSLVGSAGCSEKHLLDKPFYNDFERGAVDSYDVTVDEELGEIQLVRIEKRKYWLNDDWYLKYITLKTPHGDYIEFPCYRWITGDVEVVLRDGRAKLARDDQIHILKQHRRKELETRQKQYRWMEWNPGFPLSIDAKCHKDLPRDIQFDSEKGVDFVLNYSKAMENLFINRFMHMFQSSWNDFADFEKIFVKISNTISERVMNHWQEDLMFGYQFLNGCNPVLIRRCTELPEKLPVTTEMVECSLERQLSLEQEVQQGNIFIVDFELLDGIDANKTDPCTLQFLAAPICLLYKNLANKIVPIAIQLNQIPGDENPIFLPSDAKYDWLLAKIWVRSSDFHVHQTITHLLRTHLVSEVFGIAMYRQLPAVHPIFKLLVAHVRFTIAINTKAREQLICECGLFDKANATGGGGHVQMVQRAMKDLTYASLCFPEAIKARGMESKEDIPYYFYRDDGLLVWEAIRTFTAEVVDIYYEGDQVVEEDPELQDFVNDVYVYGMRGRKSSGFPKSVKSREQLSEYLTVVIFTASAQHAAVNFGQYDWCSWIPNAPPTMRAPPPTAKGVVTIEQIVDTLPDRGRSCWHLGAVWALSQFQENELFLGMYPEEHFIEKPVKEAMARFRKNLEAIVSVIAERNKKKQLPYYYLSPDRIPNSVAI
The conditions noted are these: cultured cells.

For the next data set, the system named is COX-2. The conditions noted are these: cultured cells.
The subject of a further data set is PLA2. The conditions noted are these: cultured cells.
The next data set concerns the target T2, PPAR-alpha (Rattus norvegicus, UniProt P37230).
T2 construct: Using a luciferase reporter gene construct containing the peroxisome proliferator response element promoter region; endogenous in cells; host or cells: H4IIEC3 rat liver cells
T2 sequence (P37230 1-468): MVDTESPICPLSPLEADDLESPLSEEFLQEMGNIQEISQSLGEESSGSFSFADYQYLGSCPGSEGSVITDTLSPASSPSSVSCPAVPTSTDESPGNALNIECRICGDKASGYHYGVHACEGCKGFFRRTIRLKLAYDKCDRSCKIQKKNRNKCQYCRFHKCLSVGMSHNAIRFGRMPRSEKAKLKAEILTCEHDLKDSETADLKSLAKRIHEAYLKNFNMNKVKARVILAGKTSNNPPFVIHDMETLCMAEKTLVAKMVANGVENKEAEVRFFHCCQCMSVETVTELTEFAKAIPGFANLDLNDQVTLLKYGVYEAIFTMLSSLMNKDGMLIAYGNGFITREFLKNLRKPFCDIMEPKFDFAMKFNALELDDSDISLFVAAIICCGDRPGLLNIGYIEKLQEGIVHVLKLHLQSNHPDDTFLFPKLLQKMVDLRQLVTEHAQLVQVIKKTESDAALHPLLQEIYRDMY
The conditions noted are these: for PPAR-alpha activation: luciferase reporter. For orientation: In a reporter assay the amount or activity of a reporter protein is the signal.

For a further data set, the target named is T3, CYP1A1 (Homo sapiens, UniProt P04798).
T3 sequence (P04798 1-512): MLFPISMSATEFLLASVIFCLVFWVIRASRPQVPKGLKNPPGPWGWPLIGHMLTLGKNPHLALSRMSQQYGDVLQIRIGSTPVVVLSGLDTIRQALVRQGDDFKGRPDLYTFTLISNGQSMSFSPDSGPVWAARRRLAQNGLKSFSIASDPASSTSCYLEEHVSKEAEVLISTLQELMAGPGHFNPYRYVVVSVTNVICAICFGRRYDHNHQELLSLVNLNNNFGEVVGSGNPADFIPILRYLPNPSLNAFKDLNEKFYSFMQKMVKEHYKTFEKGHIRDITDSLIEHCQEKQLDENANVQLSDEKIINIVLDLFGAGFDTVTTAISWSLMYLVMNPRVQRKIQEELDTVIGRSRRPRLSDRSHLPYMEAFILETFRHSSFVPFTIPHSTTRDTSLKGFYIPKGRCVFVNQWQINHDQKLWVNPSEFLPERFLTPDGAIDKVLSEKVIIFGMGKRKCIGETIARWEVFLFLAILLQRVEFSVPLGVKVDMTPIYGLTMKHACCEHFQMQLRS
The conditions noted are these: human recombinant.

For data set [2] the following is noted: mice; 28-day; 160 pound human equivalent doses of approximately 125 mg/day, 1.25 g/day and 12.5 g/day.
The target of the next data set is CYP2E1 (Homo sapiens, UniProt P05181).
CYP2E1, sequence (P05181 whole entry, species assumed): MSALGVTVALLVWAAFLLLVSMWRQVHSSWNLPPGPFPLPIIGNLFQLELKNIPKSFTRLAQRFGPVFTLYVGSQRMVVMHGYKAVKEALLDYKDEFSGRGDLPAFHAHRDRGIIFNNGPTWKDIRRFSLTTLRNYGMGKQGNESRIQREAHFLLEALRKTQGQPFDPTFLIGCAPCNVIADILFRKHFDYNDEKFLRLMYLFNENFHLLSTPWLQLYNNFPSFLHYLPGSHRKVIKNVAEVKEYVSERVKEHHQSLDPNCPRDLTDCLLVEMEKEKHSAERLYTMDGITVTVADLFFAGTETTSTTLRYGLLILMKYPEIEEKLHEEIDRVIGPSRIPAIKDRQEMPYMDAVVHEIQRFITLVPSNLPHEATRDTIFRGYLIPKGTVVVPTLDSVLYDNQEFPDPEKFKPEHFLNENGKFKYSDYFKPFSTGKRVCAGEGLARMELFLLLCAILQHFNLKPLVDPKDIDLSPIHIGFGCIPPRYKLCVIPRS
A further data set has as its target T4, CYP1B1 (Homo sapiens, UniProt Q16678).
T4 sequence (Q16678 1-543): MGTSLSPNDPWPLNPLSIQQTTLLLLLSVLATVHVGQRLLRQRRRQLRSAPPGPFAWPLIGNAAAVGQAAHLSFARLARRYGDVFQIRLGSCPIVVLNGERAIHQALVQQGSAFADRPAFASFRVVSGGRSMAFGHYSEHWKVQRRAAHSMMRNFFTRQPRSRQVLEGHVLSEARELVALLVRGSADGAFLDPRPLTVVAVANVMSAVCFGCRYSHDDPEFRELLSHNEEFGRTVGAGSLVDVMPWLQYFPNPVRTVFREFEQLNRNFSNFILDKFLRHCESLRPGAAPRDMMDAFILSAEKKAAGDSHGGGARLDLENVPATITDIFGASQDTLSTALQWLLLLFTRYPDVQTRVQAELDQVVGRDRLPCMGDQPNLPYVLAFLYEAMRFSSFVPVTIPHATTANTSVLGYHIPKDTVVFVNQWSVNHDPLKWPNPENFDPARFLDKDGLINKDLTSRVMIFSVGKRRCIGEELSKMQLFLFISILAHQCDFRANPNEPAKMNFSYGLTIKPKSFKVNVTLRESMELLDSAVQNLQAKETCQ
The conditions noted are these: human recombinant.

For the next data set, the system named is rat smooth muscle cells. The conditions noted are these: in vitro.
Where [3] appears, read: 100 μM, H4IIEC3 rat liver cells.

As for `Oc1ccc(C=Cc2cc(O)cc(O)c2)cc1` [resveratrol, reference compound], in data set [1], the “half life t1/2” value is 10 to 14 min and the bioavailability result is recorded as “poor bioavailability”. In the data set with H4IIEC3 rat liver cells, the toxicity to cells entry is “toxic to cells”.

For the compound `COc1cc(/C=C/C(=O)CC(=O)/C=C/c2ccc(O)c(OC)c2)ccc1O` [curcumin, (1E,6E)-1,7-Bis(4-hydroxy-3-methoxyphenyl)-1,6-heptadiene-3,5-dione], the water solubility result was “minimally water soluble”. Besides, the bioavailability entry in data set [1] is on record as “poor bioavailability”. Further, the 5-LOX activity entry at 5-LOX is listed as “inhibit”. Moreover, the COX-2 activity entry in the data set on COX-2 is “inhibit”. For the same compound, the PLA2 activity result with PLA2 is on record as “inhibit”.

In the case of `COc1cc(/C=C/c2ccc(O)cc2)cc(OC)c1` [pterostilbene, trans-3,5-dimethoxy-4′-hydroxystilbene], in [1], the “half life t1/2” value is 74 to 105 min and the bioavailability result is listed as “orally bioavailable”. At PPAR-alpha (setting [3]), the “PPAR-alpha activation relative to 100 μM of ciprofibrate” value was around 2 fold and the PPAR-alpha activation is 8 fold over the control. Moreover, on PPAR-alpha (300 μM, H4IIEC3 rat liver cells), the PPAR-alpha activation is 14 fold over the control. Besides, on PPAR-alpha (in a manner similar to ciprofibrate (Rimando 2005)), the “PPAR-alpha activation within a group of similar stilbenes” value is on record as “activated PPAR-alpha”. Besides, the “inhibition of CYP1A1 isozyme” value at CYP1A1 is recorded as “inhibit”. Besides, the “local or systemic toxicity” value in data set [2] is “no local or systemic toxicity”. In addition, the “inhibition of CYP2E1” value on CYP2E1 is “not”. The “inhibition of CYP1B1 isozyme” value at CYP1B1 is “inhibit”. Further, the “proliferation of rat smooth muscle cells” value in the data set with rat smooth muscle cells is on record as “inhibit”.
